# Reference: PubChem BioAssay AID1259333 (Broad Institute, 2017)
# Active and inactive are the calls of the source. How the calls were made is not given here; tested in parental BL2 cells.
# Test: loss of cell viability by ATP content – CellTiter-Glo, cytotoxicity control, dose response (AID 1259333);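 further: 0% = vehicle neutral controls and -100% = reference inhibitor positive controls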
# Conditions: cytotoxicity, CellTiter-Glo ATP luminescence; at 3 µM (top of the series)
row,SMILES,"activity change, negative = cytotoxicity"
1,O=C(Nc1ccccc1F)N1C[C@@H]2N[C@H](C1)C2c1ccc(/C=C/c2ccccc2)cc1 (stereo partly specified),21.6% (inactive)

# Same assay, conditions: cytotoxicity, CellTiter-Glo ATP luminescence; at 3.5 µM (top of the series)
row,SMILES,"activity change, negative = cytotoxicity"
1,C[C@]12CC[C@H](O)C[C@H]1CC[C@@H]1[C@@H]2CC[C@]2(C)[C@@H](c3ccc(=O)oc3)CC[C@]12O,25.8% (inactive)
2,Cc1ccccc1NC(=O)c1nc(S(C)(=O)=O)ncc1Cl,64.5% (inactive)
3,N#C[C@H]1[C@H](c2ccc(C#CC3CCCCC3)cc2)[C@@H](CO)N1C(=O)Nc1ccc(F)cc1,25.8% (inactive)
4,C[C@@H]1CCCCO[C@@H](CN(C)C(=O)C2CCCCC2)[C@@H](C)CN([C@H](C)CO)C(=O)c2cc(NS(=O)(=O)c3ccccc3)ccc2O1,22.5% (inactive)

# Same assay, conditions: cytotoxicity, CellTiter-Glo ATP luminescence; at 9 µM (top of the series)
row,SMILES,"activity change, negative = cytotoxicity"
1,C[C@@H]1CN([C@H](C)CO)C(=O)c2c(c3ccccc3n2C)-c2ccccc2CO[C@@H]1CN(C)S(=O)(=O)c1ccccc1C#N,42.3% (inactive)

# Same assay, conditions: cytotoxicity, CellTiter-Glo ATP luminescence; at 10 µM (top of the series)
row,SMILES,"activity change, negative = cytotoxicity"
1,CC1(C)C(=O)C=C[C@@]2(C)C1C(=O)C(=O)[C@]1(C)C2CC[C@@]2(C)[C@H](c3ccoc3)C[C@H]3O[C@]321 (stereo partly specified),161% (inactive)
2,O=C(COC(=O)c1ccccc1)c1ccc2c(c1)OCCO2,21.1% (inactive)
3,Cc1ccc(-c2nn3c(C)nnc3c3ccccc23)cc1S(=O)(=O)NCc1ccccc1,16.1% (inactive)
4,CCN1C(=O)C(CC(=O)Nc2ccc(F)cc2)N(Cc2ccco2)C1=S (stereo unspecified),18% (inactive)
5,N#C[C@H]1[C@H](c2ccc(C#Cc3ccccc3F)cc2)[C@H](CO)N1C(=O)C1CC1,91.9% (inactive)
6,CCc1cnc(N2[C@H](C#N)[C@@H](c3ccccc3C3=CCCC3)[C@@H]2CO)s1,-4.08% (inactive)
7,COc1ccc(C(=O)CCN2CCc3cc(OC)c(OC)cc3C2)cc1,22.2% (inactive)
8,CC1(C)C(=O)C=C[C@@]2(C)C1C=C[C@]1(C)C2CC[C@@]2(C)[C@H](c3ccoc3)OC(=O)[C@H]3O[C@]321 (stereo partly specified),15.6% (inactive)
9,Oc1cc(O)cc(/C=C/c2ccc(O)c(O)c2)c1,129% (inactive)
10,COc1cccc(S(=O)(=O)N(C)C[C@@H]2OCc3ccccc3-c3c(n(C)c4ccccc34)C(=O)N([C@@H](C)CO)C[C@@H]2C)c1,3.23% (inactive)
11,CC(=O)Nc1nc2nc(-c3ccccc3)cc(-c3ccccc3)n2n1,47.9% (inactive)
12,N#Cc1cccc(-c2ccc(C3[C@@H]4CN(C(=O)Nc5ccc(C(F)(F)F)cc5)C[C@H]3N4)cc2)c1 (stereo partly specified),-11.5% (inactive)
13,O=C(C1CCOCC1)N1CC(=O)N2[C@H](C1)[C@@H](c1ccc(C#CCc3ccccc3)cc1)[C@@H]2CO,47.9% (inactive)
14,c1ccc(-c2ccc(-c3ccccn3)nn2)nc1,-10.2% (inactive)
15,O=C(CN1C(=O)c2ccccc2S1(=O)=O)Nc1ncc(Cl)cc1Cl,30.7% (inactive)
16,C[C@H]1CN([C@@H](C)CO)C(=O)c2c(c3ccccc3n2C)-c2ccccc2CO[C@H]1CN(C)C(=O)Nc1ccccc1C(F)(F)F,-4.57% (inactive)
17,CC(=O)c1cc(-c2ccccc2)n(CC(=O)NCc2cccs2)c1C,2.3% (inactive)
18,O=C1C(=Cc2ccccc2[N+](=O)[O-])Cc2ccccc21,161% (inactive)
19,O=C(Nc1nnc(C2CC2)s1)C1CC(=O)N(c2ccc3c(c2)OCCO3)C1 (stereo unspecified),52.3% (inactive)
20,O=C(CCN1CCC(c2ccccc2)C1)c1ccc2c(c1)OCCO2 (stereo unspecified),28% (inactive)
21,CC=Cc1cc2c(c(=O)o1)C(=O)C(O)C(C)O2 (stereo unspecified),37.6% (inactive)

row,SMILES,"activity change, negative = cytotoxicity"
1,O=C(O)c1ccc(Nc2nc3c(s2)CCCC3)cc1,38.4% (inactive)
2,COc1ccc(S(=O)(=O)N(C)C[C@@H]2Oc3ccc(NC(=O)Nc4ccc(C(F)(F)F)cc4)cc3C(=O)N([C@H](C)CO)C[C@H]2C)cc1,22.7% (inactive)
3,O=C(NC(=S)/C(=C1\CCCCCN1)[N+](=O)[O-])c1ccccc1,16.4% (inactive)
4,CO[C@@H](CN(C)S(=O)(=O)c1ccc(Cl)cc1)[C@H](C)CN(Cc1ccccc1Cl)[C@@H](C)CO,1.13% (inactive)
5,Cn1cnc(S(=O)(=O)N2C[C@@H]3N[C@H](C2)C3c2ccc(-c3ccccc3F)cc2)c1 (stereo partly specified),36.7% (inactive)
6,N#C[C@@H]1[C@H](c2ccc(C#Cc3ccccc3F)cc2)[C@@H](CO)N1C(=O)C1CC1,38% (inactive)
7,CC1=CC(=O)c2ccccc2C1=O,36.2% (inactive)
8,COc1cccc(S(=O)(=O)N(C)C[C@H]2OCc3ccccc3-c3c(n(C)c4ccccc34)C(=O)N([C@H](C)CO)C[C@@H]2C)c1,20.3% (inactive)
9,CCCCC1C(=O)NC(=S)N(C)C1=O (stereo unspecified),33.7% (inactive)
10,Cc1ccc(-c2cc(C(=O)N(C)CC(=O)Nc3ccccc3Br)c3ccccc3n2)o1,130% (inactive)
11,N#C[C@@H]1[C@H](c2ccc(C#Cc3ccc(F)cc3)cc2)[C@@H](CO)N1C(=O)C1CCC1,5.33% (inactive)
12,CN(C)c1ccc(NC(=O)c2cnsn2)cc1,17.7% (inactive)
13,CC1=CC(=O)c2c(O)cccc2C1=O,112% (inactive)
14,O=C1C(Br)=C(c2ccccc2)C(c2ccccc2)=C1c1ccccc1,-18.2% (inactive)
15,CC1CCCC=CC2CC(OC(=O)CN(C)C)CC2C(O)C=CC(=O)O1 (stereo unspecified),53.7% (inactive)
16,COc1ccc(S(=O)(=O)Nc2ccc3c(c2)C(=O)N([C@@H](C)CO)C[C@@H](C)[C@@H](CN(C)Cc2ccc(C(F)(F)F)cc2)OCCCC[C@@H](C)O3)cc1,-20.6% (inactive)
17,Cc1noc(C)c1S(=O)(=O)Nc1ccc2c(c1)C(=O)N([C@H](C)CO)C[C@@H](C)[C@H](CN(C)C(=O)Nc1cccc3ccccc13)OCCCC[C@@H](C)O2,33.4% (inactive)
18,COc1ccc(CN(CCC(c2ccc(F)cc2)C2CCOC(C)(C)C2)C(=O)c2ccco2)cc1 (stereo unspecified),263% (inactive)
19,COc1ccc2c3c([nH]c2c1)[C@H](CO)N(C(=O)Nc1cccc(F)c1)CC31CCN(S(=O)(=O)c2cccc(C)c2)CC1,35% (inactive)
20,CCN1C(=O)C(CC(=O)Nc2ccc(OC)cc2)N(CCc2ccc(F)cc2)C1=S (stereo unspecified),24.7% (inactive)
21,Oc1c(Cl)cc(Cl)cc1Sc1cc(Cl)cc(Cl)c1O,11% (inactive)

row,SMILES,"activity change, negative = cytotoxicity"
1,O=C(Cc1ccccc1)N1CC[C@@H]2[C@H]1c1cc(-c3cccc(F)c3)ccc1N[C@@H]2CO,8.92% (inactive)
2,CCc1cc2c(COC(=O)c3cc(S(=O)(=O)N4CCOCC4)ccc3F)cc(=O)oc2cc1O,64% (inactive)
3,C[C@@H]1CN([C@@H](C)CO)C(=O)c2c(c3ccccc3n2C)-c2ccccc2CO[C@H]1CN(C)Cc1cccc(C(=O)Nc2ccccc2N)c1,26.3% (inactive)
4,N#C[C@@H]1[C@@H](c2ccc(C#CC3CCCCC3)cc2)[C@H](CO)N1C(=O)Nc1ccc(F)cc1,28.9% (inactive)
5,C[C@@H]1CN([C@@H](C)CO)C(=O)c2cc(C#CCc3ccccc3)cnc2O[C@@H]1CN(C)C(=O)C1CCOCC1,5.87% (inactive)
6,N#Cc1cccc(-c2ccc([C@@H]3[C@@H]4CN(S(=O)(=O)c5ccc(-c6ccccc6)cc5)C[C@H]3N4)cc2)c1,25.4% (inactive)
7,COc1ccc(CN2CC3(CN(S(=O)(=O)c4ccc(C)cc4)C3)c3c([nH]c4cc(OC)ccc34)[C@H]2CO)cc1,20.2% (inactive)
8,COc1ccc(S(=O)(=O)N(C)C[C@@H]2Oc3ccc(NC(=O)Nc4ccc(C(F)(F)F)cc4)cc3C(=O)N([C@@H](C)CO)C[C@@H]2C)cc1,84.5% (inactive)
9,CC(=O)OC1CCC2(C)C(CCC3C4CC=C(C(C)=O)C4(C)OC(=O)CC32)C1 (stereo unspecified),133% (inactive)
10,CC1CC(C)C(=O)C(C(CC2CC(=O)NC(=O)C2)OC(=O)CC(=O)c2ccccc2)C1 (stereo unspecified),11.5% (inactive)
11,O=C1C=CC(=O)C2=C1C1c3ccccc3C2c2ccccc21,90.3% (inactive)
12,O=C(Nc1ccc2c(c1)OCCO2)C1CCCC1,9.1% (inactive)
13,O=C(Nc1nc2ccccc2s1)c1ccc(OCC2CCCO2)cc1 (stereo unspecified),24.7% (inactive)
14,CC1CC(C)(C)Nc2ccc(OC(=O)c3ccco3)cc21 (stereo unspecified),203% (inactive)
15,Cc1cc(C(=O)COC(=O)c2cccn2C)c(C)n1Cc1ccco1,23.8% (inactive)
16,CCCNC(=O)N1[C@H](C#N)[C@H](c2ccc(C#Cc3cccc(F)c3)cc2)[C@H]1CO,16.9% (inactive)
17,Cc1ccc(S(=O)(=O)CCC(=O)N(CCCN2CCOCC2)c2nc3ccccc3s2)cc1,29.5% (inactive)
18,COc1ccc(-c2cnc3c(c2)C(=O)N([C@H](C)CO)C[C@@H](C)[C@@H](CN(C)C(=O)Nc2c(C)noc2C)O3)cc1,49.3% (inactive)
19,Nc1nc(=O)c2ccccc2s1,19.7% (inactive)
20,COc1cccc(S(=O)(=O)N(C)C[C@@H]2OCc3ccccc3-c3c(n(C)c4ccccc34)C(=O)N([C@H](C)CO)C[C@H]2C)c1,9.22% (inactive)
21,O=C(C1CC1)N1C[C@@H]2N[C@H](C1)C2c1ccc(-c2cccc(F)c2)cc1 (stereo partly specified),-17.6% (inactive)

# Same assay, conditions: cytotoxicity, CellTiter-Glo ATP luminescence; at 11 µM (top of the series)
row,SMILES,"activity change, negative = cytotoxicity"
1,N#C[C@@H]1[C@@H](c2ccccc2-c2ccc(F)cc2)[C@H](CO)N1C(=O)NC1CCCCC1,19.3% (inactive)
2,C[C@@H]1CN([C@H](C)CO)C(=O)Cc2cc(NC(=O)Cc3cn(C)c4ccccc34)ccc2O[C@H]1CN(C)Cc1ccc(C(F)(F)F)cc1,6.35% (inactive)
